Several values for one entry are separate records, joined by “and”; a condition that tells them apart may be missing. Equal values may be shown once. Blank lines part the entries; values can stand above or below the compound they belong to.
Test system: 636577-100-R-J1-PDC complex spheroid viability
Test: Anticancer human tumor 636577-100-R-J1-PDC patient-derived endometrial adenocarcinoma cell line growth inhibition [GQUAD]
Conditions: for viability, T/C: stronger effect = lower value
Source text: DNA G-quadruplex Stabilizer Agents in Combinations in Complex Spheroids
A high-throughput screen of multi-cell type tumor spheroids was designed to identify active combinations of DNA G-quadruplex stabilizer agents and targeted small molecules. Complex spheroids include a stromal component modeled by human endothelial cells (HUVEC) and fibroblasts modeled by human mesenchymal stem cells (MSCs). The concentration ranges selected for each drug and investigational agent were based upon clinically achievable concentrations if the clinical Cmax of the agent was known.
Compounds. The drugs and investigational agents: pidnarulex (CX-5461; NSC782164), APTO-253 (NSC789042), BRACO-19 (NSC847499), peposertib (NSC802822), ceralasertib (NSC780249), elimusertib (NSC800525), camonsertib (NSC841442), AZD-1390 (NSC803789), olaparib (NSC753686), talazoparib (NSC767125), ART-558 (NSC835418), sotorasib (NSC818433), MRTX-1133 (NSC836407), SN-38 (NSC673596), topotecan (NSC609699), etoposide (NSC141540), doxorubicin (NSC123127), gemcitabine (NSC613327), 5-fluorouracil (NSC19893), paclitaxel (NSC125973), vemurafenib (NSC761431), panobinostat (NSC761190), R-306465 (JNJ-16241199; NSC773264), adavosertib (NSC754352), TP-3654 (NSC805149), carboplatin (NSC241240), KSQ-4279 (NSC840948), and staurosporine (NSC755774) were obtained from the National Cancer Institute (NCI) Developmental Therapeutics Program Chemical Repository (34). The FDA-approved anticancer drug set is available from the NCI Developmental Therapeutics Program. […] The stock solutions were prepared in dimethyl sulfoxide (DMSO, Sigma-Aldrich, St. Louis, MO, cat. D2650) at 800-fold the tested concentration and stored at -70 degrees C prior to their use. All drugs and investigational agents were tested over a range starting from a high concentration at or near the clinical Cmax and decreasing in half-log increments. If the clinical Cmax for an agent had not been determined, the highest concentration tested was 10 microM.
2.3 Cell Culture. All cells were maintained in an incubator at 37 degrees C and 5% CO2 with 95% humidity. The PDC lines were cultured according to standard operating procedures established by the NCI PDMR. All PDCs were thawed and cultured in Matrigel-coated flasks prepared with a working solution of 1X Ham's F-12 nutrient mix, without supplementation (Invitrogen, cat. 11765054), 100 U/mL penicillin-streptomycin (Invitrogen, cat. 15140122), and 2.5% Matrigel (Corning Inc., cat. 354248) for the first three passages. The 857933-349-R-J2-PDC line was cultured in 6C/Colon 1B media, which includes advanced DMEM/F-12 (Thermo Fisher Scientific, cat. 12634028), 10 mM HEPES (Thermo Fisher Scientific, cat. 15630080), 1X GlutaMAX supplement (Thermo Fisher Scientific, cat. 35050061), 0.1 mg/mL primocin (InvivoGen, cat. ant-pm-2), 10% defined fetal bovine serum, heat inactivated (HyClone Laboratories Inc., cat. SH30070.03HI), 50% L-WRN conditioned media (ATCC, cat. CRL-3276), 1.25 mM N-Acetyl-L-cysteine (Sigma-Aldrich, cat. A9165), 10 mM nicotinamide (Sigma-Aldrich, cat. N0636), 1X B-27 supplement (Thermo Fisher Scientific, cat. 17504044), 1X N-2 supplement (Thermo Fisher Scientific, cat. 17502048), 10 microM Y-27632 dihydrochloride (Tocris Bioscience, cat. 1254), and 50 ng/mL human EGF recombinant protein (Thermo Fisher Scientific, cat. PHG0311). The 485176-168-R4-J1-PDC line was cultured in Panc media, which includes all 6C/Colon 1B media components plus 100 ng/mL human FGF-10 (Thermo Fisher Scientific, cat. 100-26), 500 nM SB-431542 (Selleckchem, cat. S1067), and gastrin (Tocris, cat. 3006).
[…]
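Also: viability read after seven days of drug exposure.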
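For viability, T/C in this document: luminescence signal used as a proxy for viable cells; 100% = DMSO vehicle control wells.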

Compound: Cc1cccc(N(C)C(=O)C2C(O)CCN2c2nc(C)cc(C(F)(F)F)c2C#N)c1 (stereo unspecified) + CN(C)c1ccc(Nc2c3ccc(NC(=O)CCN4CCCC4)cc3nc3cc(NC(=O)CCN4CCCC4)ccc23)cc1
- IC50 (curve of first compound, second compound 0.0316 µM): > 10 µM
- IC50 (curve of first compound, second compound 0.1 µM): > 10 µM
- IC50 (curve of first compound, second compound 0.316 µM): > 10 µM
- IC50 (curve of first compound, second compound 1 µM): > 10 µM
- IC50 (curve of first compound, second compound 3.16 µM): < 0.0316 µM
- IC50 (curve of first compound, second compound 10 µM): < 0.0316 µM
- viability, T/C (second compound 0.0316 µM, first compound 0.0316 µM): 78%
- viability, T/C (second compound 0.0316 µM, first compound 0.1 µM): 78.9%
- viability, T/C (second compound 0.0316 µM, first compound 0.316 µM): 97.2%
- viability, T/C (second compound 0.0316 µM, first compound 1 µM): 102%
- viability, T/C (second compound 0.0316 µM, first compound 3.16 µM): 92.1%
- viability, T/C (second compound 0.0316 µM, first compound 10 µM): 86%
- viability, T/C (second compound 0.1 µM, first compound 0.0316 µM): 105%
- viability, T/C (second compound 0.1 µM, first compound 0.1 µM): 73.6%
- viability, T/C (second compound 0.1 µM, first compound 0.316 µM): 89.7%
- viability, T/C (second compound 0.1 µM, first compound 1 µM): 92.8%
- viability, T/C (second compound 0.1 µM, first compound 3.16 µM): 92.8%
- viability, T/C (second compound 0.1 µM, first compound 10 µM): 82.9%
- viability, T/C (second compound 0.316 µM, first compound 0.0316 µM): 80.6%
- viability, T/C (second compound 0.316 µM, first compound 0.1 µM): 79.7%
- viability, T/C (second compound 0.316 µM, first compound 0.316 µM): 91.3%
- viability, T/C (second compound 0.316 µM, first compound 1 µM): 88.5%
- viability, T/C (second compound 0.316 µM, first compound 3.16 µM): 96.9%
- viability, T/C (second compound 0.316 µM, first compound 10 µM): 78.3%
- viability, T/C (second compound 1 µM, first compound 0.0316 µM): 78.1%
- viability, T/C (second compound 1 µM, first compound 0.1 µM): 87.2%
- viability, T/C (second compound 1 µM, first compound 0.316 µM): 78.6%
- viability, T/C (second compound 1 µM, first compound 1 µM): 71.5%
- viability, T/C (second compound 1 µM, first compound 3.16 µM): 76.4%
- viability, T/C (second compound 1 µM, first compound 10 µM): 57.4%
- viability, T/C (second compound 3.16 µM, first compound 0.0316 µM): 34.9%
- viability, T/C (second compound 3.16 µM, first compound 0.1 µM): 47.4%
- viability, T/C (second compound 3.16 µM, first compound 0.316 µM): 45.8%
- viability, T/C (second compound 3.16 µM, first compound 1 µM): 31.6%
- viability, T/C (second compound 3.16 µM, first compound 3.16 µM): 30.1%
- viability, T/C (second compound 3.16 µM, first compound 10 µM): 27.2%
- viability, T/C (second compound 10 µM, first compound 0.0316 µM): 7.75%
- viability, T/C (second compound 10 µM, first compound 0.1 µM): 6.99%
- viability, T/C (second compound 10 µM, first compound 0.316 µM): 4.7%
- viability, T/C (second compound 10 µM, first compound 1 µM): 4.67%
- viability, T/C (second compound 10 µM, first compound 3.16 µM): 2.93%
- viability, T/C (second compound 10 µM, first compound 10 µM): 0.73%

Compound: COc1cccc2c1C(=O)c1c(O)c3c(c(O)c1C2=O)CC(O)(C(=O)CO)CC3OC1CC(N)C(O)C(C)O1 (stereo unspecified)
- viability, T/C (compound 0.0316 µM): 28.9% and 27% and 34.2%
- viability, T/C (compound 0.1 µM): 18.4% and 18.1% and 16.8%
- viability, T/C (compound 0.316 µM): 15.4% and 13.9% and 14.7%
- viability, T/C (compound 1 µM): 7.51% and 9.99% and 11.6%
- viability, T/C (compound 3.16 µM): 0.17% and 0.21% and 0.44%
- viability, T/C (compound 10 µM): 0.53% and 0.32% and 0.4%
- IC50 (curve of compound): < 0.0316 µM

Compound: CC[C@@]1(O)C(=O)OCc2c1cc1n(c2=O)Cc2cc3c(CN(C)C)c(O)ccc3nc2-1
- viability, T/C (compound 0.000999 µM): 85.3%
- viability, T/C (compound 0.00316 µM): 80.8%
- viability, T/C (compound 0.00999 µM): 82.9%
- viability, T/C (compound 0.0316 µM): 40.3%
- viability, T/C (compound 0.0999 µM): 19.1%
- viability, T/C (compound 0.316 µM): 22%
- IC50 (curve of compound): 0.0243 µM

Compound: COc1ccc([C@@H](O)c2cc(-c3ncnc4cc(N5CCOCC5)ccc34)c(F)cc2Cl)nn1
- viability, T/C (compound 0.0316 µM): 93% and 95.4% and 33.8%
- viability, T/C (compound 0.1 µM): 96.2% and 61.9% and 97.4%
- viability, T/C (compound 0.316 µM): 86.4% and 88.9% and 65.4%
- viability, T/C (compound 1 µM): 55.2% and 54.6% and 49.7%
- viability, T/C (compound 3.16 µM): 42.5% and 43.1% and 36.6%
- viability, T/C (compound 10 µM): 28.1% and 22.5% and 25.5%
- IC50 (curve of compound): 1.58 µM and 1.97 µM and 1.17 µM

Continued, in another order:

- IC50 (curve of compound): 1.79 µM and 2.02 µM and 0.839 µM
Compound: CC(C)(O)C1CCC(Nc2ccc3ncc(-c4cccc(C(F)(F)F)c4)n3n2)CC1 (stereo unspecified)
- viability, T/C (compound 0.0316 µM): 102% and 104% and 81.5%
- viability, T/C (compound 0.1 µM): 86.4% and 84.5% and 92.3%
- viability, T/C (compound 0.316 µM): 93.7% and 109% and 93.8%
- viability, T/C (compound 1 µM): 67.9% and 78.7% and 42.9%
- viability, T/C (compound 3.16 µM): 29.4% and 26.8% and 30.6%
- viability, T/C (compound 10 µM): 35.9% and 36.4% and 44.3%

- IC50 (curve of compound): < 0.0316 µM and 0.0348 µM
Compound: O=C(NO)c1cnc(N2CCN(S(=O)(=O)c3ccc4ccccc4c3)CC2)nc1
- viability, T/C (compound 0.0316 µM): 37.6% and 34.2% and 52.9%
- viability, T/C (compound 0.1 µM): 16.6% and 16.8% and 20.5%
- viability, T/C (compound 0.316 µM): 7.21% and 7.67% and 7.55%
- viability, T/C (compound 1 µM): 5.31% and 5.87% and 4.07%
- viability, T/C (compound 3.16 µM): 0.18% and 0.1% and 0.17%
- viability, T/C (compound 10 µM): 0.11% (2×) and 0.08%

- IC50 (compound alone, run of 03/18/2024): > 10 µM and 3.07 µM and 3.21 µM
- IC50 (compound alone, run of 03/26/2024): 2.16 µM [middle of 4 runs]
Compound: Cc1[nH]c2ccc(F)cc2c1-c1nc2c3cccnc3c3ncccc3c2[nH]1
- viability, T/C (compound 1 µM): 86.1% [middle of 9 runs]
- viability, T/C (compound 3.16 µM): 38.6% [middle of 9 runs]

— PubChem BioAssay AID2060504 (Molecular Pharmacology Branch, DTP, NCI, 2025)
